# ChEMBL document CHEMBL3045033, “Synthesis of new potential anticancer agents based on 4-thiazolidinone and oleanane scaffolds” (Med Chem Res, 2012)
# Several values for one entry are separate records, joined by “and”; a condition that tells them apart may be missing. Identical values can stand only once.
# Key:
# Type in all cases: functional
# SNB-19 = assay: Cytotoxicity against Homo sapiens (human) SNB19 cells at 10^-4 to 10^-8 M after 48 hr by SRB assay; conditions: SNB-19, 48 h, read-out: pTGI (converted)
# SF-295 = assay: Cytotoxicity against Homo sapiens (human) SF295 cells at 10^-4 to 10^-8 M after 48 hr by SRB assay; conditions: SF-295, 48 h, read-out: pTGI (converted)
# SW-620 = assay: Cytotoxicity against Homo sapiens (human) SW620 cells at 10^-4 to 10^-8 M after 48 hr by SRB assay; conditions: SW-620, 48 h, read-out: pTGI (converted)
# HCT-15 = assay: Cytotoxicity against Homo sapiens (human) HCT15 cells at 10^-4 to 10^-8 M after 48 hr by SRB assay; conditions: HCT-15, 48 h, read-out: pTGI (converted)
# NCI-H460 = assay: Cytotoxicity against Homo sapiens (human) NCI-H460 cells at 10^-4 to 10^-8 M after 48 hr by SRB assay; conditions: NCI-H460, 48 h, read-out: pTGI (converted)
# NCI-H23 = assay: Cytotoxicity against Homo sapiens (human) NCI-H23 cells at 10^-4 to 10^-8 M after 48 hr by SRB assay; conditions: NCI-H23, 48 h, read-out: pTGI (converted)
# HOP-92 = assay: Cytotoxicity against Homo sapiens (human) HOP92 cells at 10^-4 to 10^-8 M after 48 hr by SRB assay; conditions: HOP-92, 48 h, read-out: pTGI (converted)
# EKVX = assay: Cytotoxicity against Homo sapiens (human) EKVX cells at 10^-4 to 10^-8 M after 48 hr by SRB assay; conditions: read-out: pTGI (converted)
# SR [1] = assay: Cytotoxicity against Homo sapiens (human) SR cells at 10^-4 to 10^-8 M after 48 hr by SRB assay; conditions: read-out: pTGI (converted)
# RPMI-8226 = assay: Cytotoxicity against Homo sapiens (human) RPMI8226 cells at 10^-4 to 10^-8 M after 48 hr by SRB assay; conditions: RPMI-8226, 48 h, read-out: pTGI (converted)
# K562 = assay: Cytotoxicity against Homo sapiens (human) K562 cells at 10^-4 to 10^-8 M after 48 hr by SRB assay; conditions: K562, 48 h, read-out: pTGI (converted)
# HL-60(TB) = assay: Cytotoxicity against Homo sapiens (human) HL-60(TB) cells at 10^-4 to 10^-8 M after 48 hr by SRB assay; conditions: HL-60, 48 h, read-out: pTGI (converted)
# DU-145 = assay: Cytotoxicity against Homo sapiens (human) DU145 cells after 48 hr by SRB assay
# A498 [2] = assay: Cytotoxicity against Homo sapiens (human) A498 cells after 48 hr by SRB assay
# [3] = Cytotoxicity against Homo sapiens (human) NCI-ADR-RES cells after 48 hr by SRB assay
# OVCAR-5 [4] = assay: Cytotoxicity against Homo sapiens (human) OVCAR5 cells after 48 hr by SRB assay
# UACC-257 [5] = assay: Cytotoxicity against Homo sapiens (human) UACC257 cells after 48 hr by SRB assay
# Hs-578T = assay: Cytotoxicity against Homo sapiens (human) Hs578T cells at 10^-4 to 10^-8 M after 48 hr by SRB assay; conditions: read-out: pTGI (converted)
# BT-549 = assay: Cytotoxicity against Homo sapiens (human) BT549 cells at 10^-4 to 10^-8 M after 48 hr by SRB assay; conditions: BT-549, 48 h, read-out: pTGI (converted)
# MCF7 = assay: Cytotoxicity against Homo sapiens (human) MCF7 cells at 10^-4 to 10^-8 M after 48 hr by SRB assay; conditions: MCF7, 48 h, read-out: pTGI (converted)
# SN12C = assay: Cytotoxicity against Homo sapiens (human) SN12C cells at 10^-4 to 10^-8 M after 48 hr by SRB assay; conditions: read-out: pTGI (converted)
# CAKI-1 = assay: Cytotoxicity against Homo sapiens (human) Caki1 cells at 10^-4 to 10^-8 M after 48 hr by SRB assay; conditions: CAKI-1, 48 h, read-out: pTGI (converted)
# A498 [6] = assay: Cytotoxicity against Homo sapiens (human) A498 cells at 10^-4 to 10^-8 M after 48 hr by SRB assay; conditions: A498, 48 h, read-out: pTGI (converted)
# ACHN = assay: Cytotoxicity against Homo sapiens (human) ACHN cells at 10^-4 to 10^-8 M after 48 hr by SRB assay; conditions: read-out: pTGI (converted)
# OVCAR-5 [7] = assay: Cytotoxicity against Homo sapiens (human) OVCAR5 cells at 10^-4 to 10^-8 M after 48 hr by SRB assay; conditions: OVCAR-5, 48 h, read-out: pTGI (converted)
# UACC-257 [8] = assay: Cytotoxicity against Homo sapiens (human) UACC257 cells at 10^-4 to 10^-8 M after 48 hr by SRB assay; conditions: UACC-257, 48 h, read-out: pTGI (converted)
# SK-MEL-28 [9] = assay: Cytotoxicity against Homo sapiens (human) SK-MEL-28 cells at 10^-4 to 10^-8 M after 48 hr by SRB assay; conditions: SK-MEL-28, 48 h, read-out: pTGI (converted)
# M14 [10] = assay: Cytotoxicity against Homo sapiens (human) M14 cells at 10^-4 to 10^-8 M after 48 hr by SRB assay; conditions: M14, 48 h, read-out: pTGI (converted)
# U-251 [11] = assay: Cytotoxicity against Homo sapiens (human) U251 cells at 10^-4 to 10^-8 M after 48 hr by SRB assay; conditions: U-251, 48 h, read-out: pTGI (converted)
# SK-MEL-28 [12] = assay: Cytotoxicity against Homo sapiens (human) SK-MEL-28 cells after 48 hr by SRB assay
# M14 [13] = assay: Cytotoxicity against Homo sapiens (human) M14 cells after 48 hr by SRB assay
# U-251 [14] = assay: Cytotoxicity against Homo sapiens (human) U251 cells after 48 hr by SRB assay
# SNB-75 = assay: Cytotoxicity against Homo sapiens (human) SNB75 cells after 48 hr by SRB assay
# HT-29 = assay: Cytotoxicity against Homo sapiens (human) HT-29 cells after 48 hr by SRB assay
# COLO 205 = assay: Cytotoxicity against Homo sapiens (human) COLO205 cells after 48 hr by SRB assay
# NCI-H226 = assay: Cytotoxicity against Homo sapiens (human) NCI-H226 cells after 48 hr by SRB assay
# HOP-62 = assay: Cytotoxicity against Homo sapiens (human) HOP62 cells after 48 hr by SRB assay
# SR [15] = assay: Cytotoxicity against Homo sapiens (human) SR cells after 48 hr by SRB assay
# [16] = Homo sapiens, NCI/ADR-RES, 48 h
SMILES,TGI (SNB-19),TGI (SF-295),TGI (SW-620),TGI (HCT-15),TGI (NCI-H460),TGI (NCI-H23),TGI (HOP-92),TGI (EKVX),TGI (SR [1]),TGI (RPMI-8226),TGI (K562),TGI (HL-60(TB)),TGI (Hs-578T),TGI (BT-549),TGI (MCF7),TGI (SN12C),TGI (CAKI-1),TGI (A498 [6]),TGI (ACHN),TGI (OVCAR-5 [7]),also measured
COC(=O)[C@]12CCC(C)(C)C[C@H]1C1=CC[C@@H]3[C@@]4(C)CC/C(=N\O)C(C)(C)[C@@H]4CC[C@@]3(C)[C@]1(C)CC2,69.2 µM,37.2 µM,40.7 µM,55 µM,51.3 µM,38 µM,39.8 µM,72.4 µM,55 µM,> 100 µM,> 100 µM,> 100 µM,66.1 µM,> 100 µM,40.7 µM,42.7 µM,47.9 µM,63.1 µM,41.7 µM,55 µM,"GI50 (DU-145; Homo sapiens, DU-145, 48 h): 20.4 µM; GI50 (A498 [2]; Homo sapiens, A498, 48 h): 28.2 µM; GI50 [3, 16]: 37.2 µM; GI50 (OVCAR-5 [4]; Homo sapiens, OVCAR-5, 48 h): 24.5 µM; GI50 (UACC-257 [5]; Homo sapiens, UACC-257, 48 h): 33.1 µM; TGI (UACC-257 [8]): > 100 µM; TGI (SK-MEL-28 [9]): 66.1 µM; TGI (M14 [10]): 57.5 µM; TGI (U-251 [11]): 33.9 µM; GI50 (SK-MEL-28 [12]; Homo sapiens, SK-MEL-28, 48 h): 24.5 µM; GI50 (M14 [13]; Homo sapiens, M14, 48 h): 23.4 µM; GI50 (U-251 [14]; Homo sapiens, U-251, 48 h): 19.1 µM; GI50 (SNB-75; Homo sapiens, SNB-75, 48 h): 18.2 µM; GI50 (HT-29; Homo sapiens, HT-29, 48 h): 22.9 µM; GI50 (COLO 205; Homo sapiens, COLO 205, 48 h): 22.4 µM; GI50 (NCI-H226; Homo sapiens, NCI-H226, 48 h): 27.5 µM; GI50 (HOP-62; Homo sapiens, HOP-62, 48 h): 21.4 µM; GI50 (SR [15]; Homo sapiens, SR, 48 h): 26.9 µM"
CC1(C)CC[C@@]23CC[C@]4(C)[C@@](OC2=O)([C@@H]3C1)[C@@H](Br)C[C@@H]1[C@@]2(C)CC/C(=N\O)C(C)(C)[C@@H]2CC[C@]14C,> 100 µM,36.3 µM,> 100 µM,> 100 µM,> 100 µM,> 100 µM,46.8 µM,> 100 µM,7.94 µM,> 100 µM,> 100 µM,> 100 µM,24.5 µM,69.2 µM,60.3 µM,> 100 µM,> 100 µM,> 100 µM,> 100 µM,> 100 µM,"GI50 (DU-145; Homo sapiens, DU-145, 48 h): 14.1 µM; GI50 (A498 [2]; Homo sapiens, A498, 48 h): 49 µM; GI50 [3, 16]: 26.9 µM; GI50 (OVCAR-5 [4]; Homo sapiens, OVCAR-5, 48 h): > 100 µM; GI50 (UACC-257 [5]; Homo sapiens, UACC-257, 48 h): 14.8 µM; TGI (UACC-257 [8]): > 100 µM; TGI (SK-MEL-28 [9]): > 100 µM; TGI (M14 [10]): > 100 µM; TGI (U-251 [11]): > 100 µM; GI50 (SK-MEL-28 [12]; Homo sapiens, SK-MEL-28, 48 h): 43.7 µM; GI50 (M14 [13]; Homo sapiens, M14, 48 h): 9.12 µM; GI50 (U-251 [14]; Homo sapiens, U-251, 48 h): 22.4 µM; GI50 (SNB-75; Homo sapiens, SNB-75, 48 h): 20.4 µM; GI50 (HT-29; Homo sapiens, HT-29, 48 h): 17.8 µM; GI50 (COLO 205; Homo sapiens, COLO 205, 48 h): 91.2 µM; GI50 (NCI-H226; Homo sapiens, NCI-H226, 48 h): 28.2 µM; GI50 (HOP-62; Homo sapiens, HOP-62, 48 h): 40.7 µM; GI50 (SR [15]; Homo sapiens, SR, 48 h): 2.14 µM"
COC(=O)[C@]12CCC(C)(C)C[C@H]1C1=CC[C@@H]3[C@@]4(C)CC/C(=N\OC(=O)/C=C5/SC(=O)NC5=O)C(C)(C)[C@@H]4CC[C@@]3(C)[C@]1(C)CC2,26.3 µM,20.9 µM,3.89 µM,11 µM,9.55 µM,12.3 µM,4.68 µM,22.4 µM,3.89 µM,6.03 µM,8.13 µM,5.37 µM,6.76 µM,9.12 µM,10.7 µM,18.6 µM,16.2 µM,5.75 µM,3.39 µM,33.9 µM,"GI50 (DU-145): 42.7 µM and 5.13 µM; GI50 (A498 [2]): 17.8 µM and 2.57 µM; GI50 [3]: 61.7 µM and 7.59 µM; GI50 (OVCAR-5 [4]): 60.3 µM and 18.6 µM; GI50 (UACC-257 [5]): 51.3 µM and 11.5 µM; TGI (UACC-257 [8]): 24.5 µM; TGI (SK-MEL-28 [9]): 3.8 µM; TGI (M14 [10]): 5.13 µM; TGI (U-251 [11]): 3.39 µM; GI50 (SK-MEL-28 [12]): 7.08 µM and 2.04 µM; GI50 (M14 [13]): ≥ 20 µM; GI50 (U-251 [14]): 6.76 µM and 1.78 µM; GI50 (SNB-75): 49 µM and 10.7 µM; GI50 (HT-29): 15.8 µM and 2.24 µM; GI50 (COLO 205): 3.47 µM; GI50 (COLO 205; Homo sapiens, COLO 205, 48 h): 2.63 µM; GI50 (NCI-H226): ≥ 100 µM and 12.3 µM; GI50 (HOP-62): 64.6 µM and 20 µM; GI50 (SR [15]): 8.91 µM and 1.7 µM"
